{"source": "PubChem BioAssay AID1259407", "about": "(Chemical Carcinogenesis Research Information System (CCRIS), 2018)", "tested_on": "CCRIS mutagenicity, Ames/micronucleus/aberration tests", "assay": "CCRIS mutagenicity studies", "source_text": "The CCRIS database contains chemical records with carcinogenicity, mutagenicity, tumor promotion, and tumor inhibition test results. It was developed by the National Cancer Institute (NCI). Data are derived from studies cited in primary journals, current awareness tools, NCI reports, and other sources. Test results have been reviewed by experts in carcinogenesis and mutagenesis.\nCCRIS provides historical information from the years 1985 - 2011. It is no longer updated.\nThis is an archive assay for CCRIS mutagenicity studies.", "key": {"[1]": {"settings": "Test System: AMES SALMONELLA TYPHIMURIUM, Strain/Indicator: TA100, Metabolic Activation: NONE, Method: STANDARD PLATE"}, "[2]": {"settings": "Test System: AMES SALMONELLA TYPHIMURIUM, Strain/Indicator: TA98, Metabolic Activation: NONE, Method: PREINCUBATION"}}, "note": "Active and inactive are the calls of the source. The rule behind the calls is not given here."}
{"compound": "C=COC(=O)C=C", "values": [{"measurement": "mutagenic call", "setting": "Test System: AMES SALMONELLA TYPHIMURIUM, Strain/Indicator: TA102, Metabolic Activation: RAT, LIVER, S-9, PHENOBARBITAL AND 5,6-BENZOFLAVONE, Method: STANDARD PLATE", "value": "inactive; negative"}, {"measurement": "mutagenic call", "setting": "Test System: AMES SALMONELLA TYPHIMURIUM, Strain/Indicator: TA2638, Metabolic Activation: RAT, LIVER, S-9, PHENOBARBITAL AND 5,6-BENZOFLAVONE, Method: STANDARD PLATE", "value": "inactive; negative"}, {"measurement": "mutagenic call", "setting": "Test System: E. COLI, Strain/Indicator: WP2 (PKM101), Metabolic Activation: RAT, LIVER, S-9, PHENOBARBITAL AND 5,6-BENZOFLAVONE, Method: STANDARD PLATE", "value": "inactive; negative"}, {"measurement": "mutagenic call", "setting": "Test System: E. COLI, Strain/Indicator: WP2 UVRA (PKM101), Metabolic Activation: RAT, LIVER, S-9, PHENOBARBITAL AND 5,6-BENZOFLAVONE, Method: STANDARD PLATE", "value": "inactive; negative"}]}
{"compound": "CCCCOS(=O)(=O)c1ccccc1", "values": [{"measurement": "mutagenic call", "setting": "End Point: IN VITRO MICRONUCLEUS, Test System: MOUSE LYMPHOMA L5178Y CELLS, Metabolic Activation: NONE", "value": "inactive; negative"}, {"measurement": "mutagenic call", "setting": "End Point: IN VITRO MICRONUCLEUS, Test System: MOUSE LYMPHOMA L5178Y CELLS, Metabolic Activation: RAT, LIVER, S-9", "value": "inactive; negative"}, {"measurement": "mutagenic call", "setting": "End Point: In vitro micronucleus, Test System: Chinese Hamster Ovary (CHO-WBL) cells, Metabolic Activation: None", "value": "active; positive (p<0.01)"}, {"measurement": "mutagenic call", "setting": "[1]", "value": "active; positive"}, {"measurement": "mutagenic call", "setting": "Test System: AMES SALMONELLA TYPHIMURIUM, Strain/Indicator: TA100, Metabolic Activation: RAT, LIVER, S-9, Method: STANDARD PLATE", "value": "active; positive"}]}
{"compound": "O=Cc1cccc(Cl)c1Cl", "values": [{"measurement": "mutagenic call", "setting": "[2]", "value": "inactive; negative"}, {"measurement": "mutagenic call", "setting": "Test System: AMES SALMONELLA TYPHIMURIUM, Strain/Indicator: TA98, Metabolic Activation: RAT LIVER S-9, PCB, Method: PREINCUBATION", "value": "inactive; negative"}, {"measurement": "mutagenic call", "setting": "Test System: AMES SALMONELLA TYPHIMURIUM, Strain/Indicator: TA100, Metabolic Activation: NONE, Method: PREINCUBATION", "value": "inactive; negative"}, {"measurement": "mutagenic call", "setting": "Test System: AMES SALMONELLA TYPHIMURIUM, Strain/Indicator: TA100, Metabolic Activation: RAT LIVER S-9, PCB, Method: PREINCUBATION", "value": "inactive; negative"}, {"measurement": "mutagenic call", "setting": "Test System: AMES SALMONELLA TYPHIMURIUM, Strain/Indicator: TA104, Metabolic Activation: NONE, Method: PREINCUBATION", "value": "inactive; negative"}, {"measurement": "mutagenic call", "setting": "Test System: AMES SALMONELLA TYPHIMURIUM, Strain/Indicator: TA104, Metabolic Activation: RAT LIVER S-9, PCB, Method: PREINCUBATION", "value": "inactive; negative"}, {"measurement": "mutagenic call", "setting": "Test System: E.COLI, Strain/Indicator: WP2 UVRA, Metabolic Activation: NONE, Method: PREINCUBATION", "value": "inactive; negative"}, {"measurement": "mutagenic call", "setting": "Test System: E.COLI, Strain/Indicator: WP2 UVRA, Metabolic Activation: RAT LIVER S-9, PCB, Method: PREINCUBATION", "value": "inactive; negative"}]}
{"compound": "c1cc(OCC2CO2)ccc1Cc1ccc(OCC2CO2)cc1", "note": "(configuration not stated)", "values": [{"measurement": "mutagenic call", "setting": "End Point: In vitro micronucleus, Test System: HepG2 cells, Metabolic Activation: None", "value": "inactive; negative"}]}
{"compound": "Cc1ccc(N=[N+]([O-])c2ccc(C)c(N)c2)cc1N", "values": [{"measurement": "mutagenic call", "setting": "[2]", "value": "inactive; negative"}, {"measurement": "mutagenic call", "setting": "Test System: AMES SALMONELLA TYPHIMURIUM, Strain/Indicator: TA98, Metabolic Activation: NONE, Method: SUSPENSION/PLATE", "value": "inactive; negative"}, {"measurement": "mutagenic call", "setting": "Test System: AMES SALMONELLA TYPHIMURIUM, Strain/Indicator: TA98, Metabolic Activation: RAT, LIVER, S-9, PCB, Method: PREINCUBATION", "value": "active; positive"}, {"measurement": "mutagenic call", "setting": "Test System: AMES SALMONELLA TYPHIMURIUM, Strain/Indicator: TA98, Metabolic Activation: RAT, LIVER, S-9, PHENOBARBITAL AND 5,6-BENZOFLAVONE, Method: SUSPENSION/PLATE", "value": "active; positive"}, {"measurement": "mutagenic call", "setting": "Test System: AMES SALMONELLA TYPHIMURIUM, Strain/Indicator: TA100, Metabolic Activation: NONE, Method: SUSPENSION/PLATE", "value": "inactive; negative"}, {"measurement": "mutagenic call", "setting": "Test System: AMES SALMONELLA TYPHIMURIUM, Strain/Indicator: TA100, Metabolic Activation: RAT, LIVER, S-9, PHENOBARBITAL AND 5,6-BENZOFLAVONE, Method: SUSPENSION/PLATE", "value": "inactive; negative"}]}
{"compound": "CS(=O)(=O)n1ncc(Cl)c(Cl)c1=O", "values": [{"measurement": "mutagenic call", "setting": "Test System: AMES SALMONELLA TYPHIMURIUM, Strain/Indicator: TA98, Metabolic Activation: NONE, Method: STANDARD PLATE", "value": "inactive; negative"}, {"measurement": "mutagenic call", "setting": "Test System: AMES SALMONELLA TYPHIMURIUM, Strain/Indicator: TA98, Metabolic Activation: RAT, LIVER, S-9, AROCLOR 1254, Method: STANDARD PLATE", "value": "inactive; negative"}, {"measurement": "mutagenic call", "setting": "[1]", "value": "active; positive"}, {"measurement": "mutagenic call", "setting": "Test System: AMES SALMONELLA TYPHIMURIUM, Strain/Indicator: TA100, Metabolic Activation: RAT, LIVER, S-9, AROCLOR 1254, Method: STANDARD PLATE", "value": "active; positive"}, {"measurement": "mutagenic call", "setting": "Test System: AMES SALMONELLA TYPHIMURIUM, Strain/Indicator: TA1535, Metabolic Activation: NONE, Method: STANDARD PLATE", "value": "inactive; negative"}, {"measurement": "mutagenic call", "setting": "Test System: AMES SALMONELLA TYPHIMURIUM, Strain/Indicator: TA1535, Metabolic Activation: RAT, LIVER, S-9, AROCLOR 1254, Method: STANDARD PLATE", "value": "inactive; negative"}, {"measurement": "mutagenic call", "setting": "Test System: AMES SALMONELLA TYPHIMURIUM, Strain/Indicator: TA1537, Metabolic Activation: NONE, Method: STANDARD PLATE", "value": "inactive; negative"}, {"measurement": "mutagenic call", "setting": "Test System: AMES SALMONELLA TYPHIMURIUM, Strain/Indicator: TA1537, Metabolic Activation: RAT, LIVER, S-9, AROCLOR 1254, Method: STANDARD PLATE", "value": "inactive; negative"}]}
